PubChem BioAssay AID1996
In brackets after ≈: the same amount, converted by molar mass.

Conditions: buffer; pH 7.4; 200.0 µM

SMILES	solubility kinetic [mg/mL]
CCn1c(SC)nc2cc(S(=O)(=O)N3CCCCC3)ccc21	0.0436 (≈ 128 µM)
O=C(COC(=O)c1cnccn1)Nc1ccc(Cl)cn1	> 0.0439
CC(=O)Nc1ccc(C23CC4CC(CC(C4)C2)C3)cc1	0.0008 (≈ 2.97 µM)
Cc1ccccc1NC(=O)COC(=O)CC1CCCC1	> 0.0413
CC(C)Oc1ccc(/C=C(\C#N)C(=O)NC2CC2)cc1	0.0134 (≈ 49.6 µM)
O=C(NCCc1ccccc1)C1(c2ccccc2)CCCC1	0.0289 (≈ 98.5 µM)
CC(=O)Nc1ccc(C(=O)O)cc1	> 0.0269
CCN(C(=O)C(C)Cl)c1ccccc1 (stereo unspecified)	0.0206 (≈ 97.3 µM)
Clc1cccc(CN2CCSCC2)c1Cl	0.001 (≈ 3.81 µM)
CC(C)Nc1nc(NC2CCCC2)nc(N2CCOCC2)n1	0.0163 (≈ 53.2 µM)
Nc1cc2c(cc1Cl)N(Cc1ccccc1)C(=O)CO2	> 0.0433
O=c1c2c3c(sc2[nH]c(=S)n1Cc1ccco1)CCC3	0.0346 (≈ 114 µM)
COc1ccccc1NC(=O)COC(=O)C1CC2CCCC(C1)C2=O (stereo unspecified)	> 0.0518
N#Cc1ccncc1Sc1ccc(Cl)cc1	0.0253 (≈ 103 µM)
COc1ccc2c(c1OC)C(=O)OC2Nc1nc2ccccc2s1 (stereo unspecified)	0.0504 (≈ 147 µM)
Nc1c(C(=O)N2CCCC2)sc2nc(-c3ccccc3)ccc12	0.0021 (≈ 6.49 µM)
O=C(NCCN1CCOCC1)c1ccc(Cl)nc1	> 0.0405
COc1cc(OC)c(OC)cc1CNCc1ccco1	0.0387 (≈ 140 µM)
CCOc1ccc(C(=O)NCC2CCN(CC3CCCCC3)CC2)cc1	> 0.0538
C=CCn1c(SCC(=O)N(C)C)nc2cc(C(=O)O)ccc2c1=O	> 0.0521
Cc1cc(C)n2nc(SCC(=O)N3CCCCC3C)nc2n1 (stereo unspecified)	> 0.0479
CCCCNC(=O)COCc1cc(-c2ccc3c(c2)OCO3)on1	0.0195 (≈ 58.7 µM)
O=C(O/N=C1\CCCc2ccccc21)C1CC1	0.0283 (≈ 123 µM)

SMILES	solubility kinetic [mg/mL]
COC(=O)c1ccc(CNC(=O)CCC(=O)N2CCOCC2)cc1	> 0.0502
COc1ccc(/C=N/NC(=O)c2cccnc2)c(C(=O)O)c1OC	> 0.0494
CNc1ccc([N+](=O)[O-])cc1C(=O)O	0.0267 (≈ 136 µM)
Cn1cc(C=O)c2cc(F)ccc21	> 0.0266
C=CCNC(=O)N[C@@H](Cc1ccccc1)C(=O)OC	> 0.0393
COc1cccc(C2=NOC(C(=O)Nc3cc(C)on3)C2)c1OC (stereo unspecified)	0.0465 (≈ 140 µM)
O=C(c1c[nH]c2ccccc12)N1CCOCC1	0.0263 (≈ 114 µM)
Cc1nn(CC(=O)N(C)C2(C#N)CCCCC2)c(C)c1[N+](=O)[O-]	> 0.0479
O=C(CCN1CCN(c2ccccc2F)CC1)Nc1ccccc1Cl	> 0.0543
CC(NC(=O)c1ccco1)C(=O)OCc1cccc(C(F)(F)F)c1 (stereo unspecified)	> 0.0512
O=C(NCCNC(=O)c1cnccn1)c1ccc(Cl)c(Cl)c1	0.0069 (≈ 20.3 µM)
CC[n+]1oc(-c2ccccc2)cc1C.F[B-](F)(F)F	0.0374
Cc1cc(C)c(NC(=O)C2CC3CCC2C3)c(C)c1 (stereo unspecified)	0.0101 (≈ 39.2 µM)
CC1=CCC(C(=O)O)C(C(=O)NC2CCCCC2)C1 (stereo unspecified)	> 0.0398
CC1(C)NC(=O)N(Cc2cc(=O)n3ccsc3n2)C1=O	> 0.0438
Cn1c(SCc2ccc([N+](=O)[O-])cc2)nc2c(c1=O)SCC2	0.0016 (≈ 4.77 µM)
Cn1c(CNC(=O)C2CCCCC2)cc2cc(Cl)ccc21	< 0.0003
Cc1ccc(NC(=O)NC2CCCCCCC2)cc1C	< 0.0003
COC(=O)c1scc(C)c1NC(=O)c1cccc(C#N)c1	> 0.045
CC1(C)C2CCC1(C)C(OCCNCCOC(=O)Nc1ccccc1)C2 (stereo unspecified)	0.0102 (≈ 28.3 µM)
O=C1CCC(=O)N1c1ccccc1	> 0.0263
Nc1nc(Cl)nc2ncn(Cc3ccccc3)c12	> 0.039
CC1CCCCC1NC(=O)C1CC(=O)N(Cc2ccccc2)C1 (stereo unspecified)	> 0.0472

SMILES	solubility kinetic [mg/mL]
Cc1cc(CSc2ccccc2C(=O)O)on1	> 0.0374
CCN1CCN(C(=O)c2cc3ccc(OC)cc3[nH]2)CC1	> 0.0431
COc1ccc(C2C(C#N)=C(N)Oc3cc(O)ccc32)cc1Cl (stereo unspecified)	0.0435 (≈ 132 µM)
O=C(Nc1cccc(Cl)c1)Nc1cnccn1	0.0013 (≈ 5.23 µM)
COC(=O)c1c(N)sc(C(=O)NCCc2ccccc2)c1C	> 0.0478
Fc1ccccc1CNC(=S)NC1CCCCC1	> 0.04
Cc1ccccc1C1NC(=S)NC2=C1C(=O)CCC2 (stereo unspecified)	> 0.0409
CCCCNC(=O)C(=O)NCc1ccncc1	0.0328 (≈ 139 µM)
O=C(/C=C/c1ccco1)Nc1ccc2c(c1)OCO2	0.0368 (≈ 143 µM)
O=C(NC12CC3CC(CC(C3)C1)C2)N1CCN(c2ccccc2)CC1	0.0127 (≈ 37.4 µM)
COc1cc(C(=O)Nc2ccc3c(c2)ncn3C)cc(OC)c1OC	> 0.0512
CNC(=S)N(CCO)Cc1cc2cc3c(cc2[nH]c1=O)OCO3	0.0196 (≈ 58.4 µM)
N#CC1(NC(=O)COc2cccnc2[N+](=O)[O-])CCCCC1	> 0.0456
Nc1cccc(C(=O)N/N=C/c2ccsc2)c1	> 0.0368
Cc1ccc(C(=O)N/C(=C\c2ccco2)C(=O)N2CC(C)OC(C)C2)cc1C (stereo unspecified)	> 0.0574
CCOCCCn1cnc2c3cc(F)ccc3n(C)c2c1=O	0.0104 (≈ 34.3 µM)
CC(C)CCNC(=O)C1(c2cccs2)CCOCC1	> 0.0422
Clc1nc(CN2CCOCC2)nc2sc3c(c12)CCC3	0.0445 (≈ 144 µM)
O=Cc1cnc(N2CCN(Cc3ccccc3)CC2)s1	> 0.0431
O=C(O)CSc1nc(-c2ccccc2)nc2c1CCCC2	> 0.0451
Cl.NCc1ccccc1CS(=O)(=O)N1CCOCC1	> 0.046
COc1cccc(Nc2ncc(C#N)c(N)n2)c1	0.0319 (≈ 132 µM)
CCc1onc(C)c1C(=O)Nc1ccc2c(c1)OCO2	> 0.0411

Second part, the compound after the results:

solubility kinetic [mg/mL]	SMILES
> 0.0704	O=S(=O)(N=C(NS(=O)(=O)c1ccc(Cl)cc1)c1ccccc1)c1ccc(Cl)cc1
0.0093 (≈ 25 µM)	CN(CC(=O)Nc1ccc(OC(F)(F)F)cc1)C(=O)Cc1cccs1
0.0408	Cc1ccc(C)c(NC(=O)C[n+]2ccccc2)c1.[Cl-]
0.0085 (≈ 24.9 µM)	CCOC(=O)CC(NC(=O)c1ccc(C)cc1)c1ccc(OC)cc1 (stereo unspecified)
> 0.0449	CCN1C(=O)c2ccccc2Sc2ccc(C(=O)O)cc21
0.0017 (≈ 4.9 µM)	COc1ccccc1CNC(=O)Cn1c(=O)oc2cc(Cl)ccc21
> 0.0487	CCc1ccc(OS(=O)(=O)c2cn(C)c(=O)n(C)c2=O)cc1
0.0504 (≈ 146 µM)	O=C(O)c1ccccc1-c1ccccc1C(=O)NCCc1ccccc1
0.0227 (≈ 65 µM)	Cc1onc(-c2ccccc2)c1NC(=O)N(Cc1ccccc1)C(C)C
< 0.0003	Cc1ccc(NC(=O)c2cc(=O)[nH]c3ccccc23)cc1C
> 0.0515	Cc1cccc(-c2nnc(SCC(=O)Nc3cc(C)on3)n2C)c1
> 0.0402	OCc1nc2ccccc2n1CCOc1ccccc1
< 0.0007	CC1(C)CC(=O)c2ccc(OCc3ccc([N+](=O)[O-])cc3)cc2O1
0.0441 (≈ 143 µM)	O=C(CNS(=O)(=O)c1ccc(F)cc1)Nc1ccccc1
0.0032 (≈ 8.37 µM)	O=C(COC(=O)CNC(=O)c1ccc(Cl)cc1)Nc1ccc(Cl)cn1
< 0.0004	COc1ccc(OCC(=O)Nc2cc(OC)ccc2N2CCCCC2)cc1
> 0.063	CN(C)CCCNc1oc(-c2ccc(Cl)cc2)nc1S(=O)(=O)c1ccccc1
0.0228 (≈ 94.5 µM)	c1ccc(CCNCCOc2ccccc2)cc1
> 0.0411	Cc1ccc(NC(=O)c2c([N+](=O)[O-])cnn2C)cc1C
0.0392 (≈ 112 µM)	Cc1onc(-c2ccccc2)c1C(=O)OCC(=O)N(C)c1ccccc1
0.045 (≈ 141 µM)	O=C(CCNC(=O)c1ccc(Cl)cc1)Nc1ncccc1O
0.0348 (≈ 150 µM)	Cc1ccc(NC(=O)c2sccc2C)nc1
> 0.0404	CCc1ccc(Nc2nc(C)cc(C)c2C(N)=O)cc1
0.0255 (≈ 65.8 µM)	Cc1ccc(S(=O)(=O)NCCC(=O)Oc2ccc3ccc(=O)oc3c2)cc1
< 0.0002	COc1ccc(Oc2nc(-c3cccnc3)nc3ccccc23)cc1
0.0037 (≈ 12.5 µM)	CCOc1ccc(NC(=O)N2CCc3ccccc3C2)cc1

solubility kinetic [mg/mL]	SMILES
> 0.0467	CC1(C)Cc2cccc(OCC(=O)NCc3ccccc3)c2O1
0.0111 (≈ 35.4 µM)	COCc1c(C(=O)OCC(=O)c2ccc[nH]2)oc2ccccc12
0.0032 (≈ 7.91 µM)	O=C(NCC(c1ccc(F)cc1)N1CCOCC1)c1ccc(-c2ccccc2)cc1 (stereo unspecified)
> 0.035	COc1ccc(-n2c(N)cc(=O)[nH]c2=O)cc1
0.0052 (≈ 15.8 µM)	COCc1cc(C)nc(SCc2ccc([N+](=O)[O-])cc2)c1C#N
> 0.047	O=C(Cn1cc([N+](=O)[O-])ccc1=O)N1CCc2ccccc2C1
0.0006 (≈ 1.68 µM)	CCCn1c(CCl)nc2cc(S(=O)(=O)N3CCOCC3)ccc21
0.0054 (≈ 22.4 µM)	COc1ccc(NC(=O)c2ccc(C)cc2)cc1
> 0.0821	CCN(C(=O)COC(=O)CCNS(=O)(=O)c1ccccc1F)c1c(N)n(Cc2ccccc2)c(=O)[nH]c1=O
0.0012 (≈ 2.61 µM)	NC(=O)CC[C@H](NC(=O)c1ccc(F)cc1)C(=O)OCC(=O)NCc1ccc2c(c1)OCO2
0.0102 (≈ 32.2 µM)	CCOC(=O)c1ccc(NC(=O)CNC(=O)c2ccco2)cc1
> 0.0512	Cc1ccc(C2=NN(CC(=O)NCc3cccs3)C(=O)CC2)cc1
0.0083 (≈ 28 µM)	CCCC(C)NC(=O)CN1C(=O)c2cccc3cccc1c23 (stereo unspecified)
0.0088 (≈ 32.9 µM)	CN(C)c1ccc(C2NC(=O)c3ccccc3N2)cc1 (stereo unspecified)
> 0.0573	O=C(Nc1cc(S(=O)(=O)N2CCOCC2)ccc1Cl)c1ccncc1
0.0134 (≈ 26.5 µM)	CC(C)[C@H](NS(=O)(=O)c1cccc(C(F)(F)F)c1)C(=O)OCC(=O)NC(=O)NCc1ccco1
0.0406 (≈ 139 µM)	C=CCn1c(/N=C/c2ccc(OC)cc2)nc2ccccc21
0.0429 (≈ 142 µM)	COc1ccc(CCNC(=O)Oc2ccccc2)cc1OC
> 0.0466	Cc1[nH]c2ccccc2c1C(=O)C(=O)NCCCn1ccnc1
> 0.0491	Cc1cnc(NS(=O)(=O)c2ccccc2)c(Br)c1
> 0.0464	Cc1c(NCc2ccccc2O)c(=O)n(-c2ccccc2)n1C
0.0006 (≈ 1.75 µM)	COc1ccc(OC)c(-c2nc3ccccc3nc2-c2ccccc2)c1
0.0051 (≈ 21.7 µM)	Cc1ccc(S(=O)(=O)n2cccc2C)cc1
0.0027 (≈ 8.12 µM)	O=C(Nc1ccc(N2CCOCC2)cc1)c1cccc2ccccc12
0.0011 (≈ 3.7 µM)	O=S(=O)(NCc1ccccc1)c1ccc2ccccc2c1
> 0.0409	Cc1ccc2[nH]cc(CCNC(=O)C3CCCO3)c2c1 (stereo unspecified)
